# Legend:
# Test in all cases: Kinase selectivity, Z'-LYTE
# Format in all cases: biochemical
# [1] = target: T1, JAK2 (Homo sapiens, UniProt O60674)
# T1 construct: purchased Invitrogen (Life Technologies) SelectScreen Z'-LYTE
# Outline: (§1)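 Selectivity was profiled by a fluorescence-based coupled-enzyme assay in which phosphorylated and non-phosphorylated peptides differ in sensitivity to proteolytic cleavage. Recombinant kinases were used, each with an assay mixture optimized for that kinase.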
# [2] = target: T2, FLT1 (VEGFR1) (Homo sapiens, UniProt P17948)
# T2 construct: purchased Invitrogen (Life Technologies) SelectScreen Z'-LYTE
# Outline: as §1
# [3] = target: T3, TYK2 (Homo sapiens, UniProt P29597)
# T3 construct: purchased Invitrogen (Life Technologies) SelectScreen Z'-LYTE
# Outline: as §1
# [4] = target: T4, RAF1 (cRAF) Y340D Y341D (Homo sapiens, UniProt P04049, Y340D/Y341D)
# T4 construct: purchased Invitrogen (Life Technologies) SelectScreen Z'-LYTE
# Outline: as §1
# [5] = target: T5, SRC (Homo sapiens, UniProt P12931)
# T5 construct: purchased Invitrogen (Life Technologies) SelectScreen Z'-LYTE
# Outline: as §1
# [6] = target: T6, FGFR2 (Homo sapiens, UniProt P21802)
# T6 construct: purchased Invitrogen (Life Technologies) SelectScreen Z'-LYTE
# T6 sequence (P21802 22-821): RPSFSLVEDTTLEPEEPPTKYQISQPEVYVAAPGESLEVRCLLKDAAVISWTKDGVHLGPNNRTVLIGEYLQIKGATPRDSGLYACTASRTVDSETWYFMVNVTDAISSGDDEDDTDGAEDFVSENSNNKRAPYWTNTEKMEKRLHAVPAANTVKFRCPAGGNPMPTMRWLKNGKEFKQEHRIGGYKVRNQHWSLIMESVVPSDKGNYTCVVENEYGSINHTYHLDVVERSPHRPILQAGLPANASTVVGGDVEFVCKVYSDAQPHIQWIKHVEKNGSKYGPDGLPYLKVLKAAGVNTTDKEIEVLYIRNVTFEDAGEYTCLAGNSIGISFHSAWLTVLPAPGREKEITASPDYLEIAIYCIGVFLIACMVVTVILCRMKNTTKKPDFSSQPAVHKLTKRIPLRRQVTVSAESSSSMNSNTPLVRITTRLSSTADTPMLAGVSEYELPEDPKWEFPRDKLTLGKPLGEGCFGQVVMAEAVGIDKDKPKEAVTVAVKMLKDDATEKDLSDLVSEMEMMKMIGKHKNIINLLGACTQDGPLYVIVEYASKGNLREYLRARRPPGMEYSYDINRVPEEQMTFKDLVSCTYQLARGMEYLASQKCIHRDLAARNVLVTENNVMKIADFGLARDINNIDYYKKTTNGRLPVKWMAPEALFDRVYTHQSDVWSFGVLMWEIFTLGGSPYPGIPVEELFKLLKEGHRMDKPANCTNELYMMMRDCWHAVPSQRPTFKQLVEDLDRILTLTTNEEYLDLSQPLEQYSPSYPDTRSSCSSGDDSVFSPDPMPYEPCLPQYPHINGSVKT
# Outline: as §1
# [7] = target: T7, MAPK3 (ERK1) (Homo sapiens, UniProt P27361)
# T7 construct: purchased Invitrogen (Life Technologies) SelectScreen Z'-LYTE
# T7 sequence (P27361 whole entry): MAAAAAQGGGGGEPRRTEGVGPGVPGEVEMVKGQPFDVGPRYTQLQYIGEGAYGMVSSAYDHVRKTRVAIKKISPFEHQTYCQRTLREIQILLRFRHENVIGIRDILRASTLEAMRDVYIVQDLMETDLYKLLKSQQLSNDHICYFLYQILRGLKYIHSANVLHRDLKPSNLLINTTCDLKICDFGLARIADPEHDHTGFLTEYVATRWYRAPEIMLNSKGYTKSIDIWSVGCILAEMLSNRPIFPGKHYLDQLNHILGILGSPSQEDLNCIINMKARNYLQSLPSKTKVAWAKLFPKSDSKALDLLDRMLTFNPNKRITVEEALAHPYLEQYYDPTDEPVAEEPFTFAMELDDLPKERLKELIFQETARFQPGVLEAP
# Outline: as §1
# [8] = target: T8, CDK9/cyclin T1 (Homo sapiens, UniProt P50750)
# T8 construct: purchased Invitrogen (Life Technologies) SelectScreen Z'-LYTE
# T8 sequence (P50750 whole entry): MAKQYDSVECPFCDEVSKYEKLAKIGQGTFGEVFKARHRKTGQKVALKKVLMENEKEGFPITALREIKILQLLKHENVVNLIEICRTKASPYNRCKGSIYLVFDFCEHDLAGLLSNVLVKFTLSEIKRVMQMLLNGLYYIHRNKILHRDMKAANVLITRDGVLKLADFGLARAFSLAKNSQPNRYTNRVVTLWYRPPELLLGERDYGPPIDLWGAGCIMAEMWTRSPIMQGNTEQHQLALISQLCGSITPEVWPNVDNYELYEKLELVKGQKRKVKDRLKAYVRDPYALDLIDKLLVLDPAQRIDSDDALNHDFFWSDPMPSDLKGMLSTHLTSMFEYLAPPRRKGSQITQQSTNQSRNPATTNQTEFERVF
# T8 sequence (O60563 whole entry partner): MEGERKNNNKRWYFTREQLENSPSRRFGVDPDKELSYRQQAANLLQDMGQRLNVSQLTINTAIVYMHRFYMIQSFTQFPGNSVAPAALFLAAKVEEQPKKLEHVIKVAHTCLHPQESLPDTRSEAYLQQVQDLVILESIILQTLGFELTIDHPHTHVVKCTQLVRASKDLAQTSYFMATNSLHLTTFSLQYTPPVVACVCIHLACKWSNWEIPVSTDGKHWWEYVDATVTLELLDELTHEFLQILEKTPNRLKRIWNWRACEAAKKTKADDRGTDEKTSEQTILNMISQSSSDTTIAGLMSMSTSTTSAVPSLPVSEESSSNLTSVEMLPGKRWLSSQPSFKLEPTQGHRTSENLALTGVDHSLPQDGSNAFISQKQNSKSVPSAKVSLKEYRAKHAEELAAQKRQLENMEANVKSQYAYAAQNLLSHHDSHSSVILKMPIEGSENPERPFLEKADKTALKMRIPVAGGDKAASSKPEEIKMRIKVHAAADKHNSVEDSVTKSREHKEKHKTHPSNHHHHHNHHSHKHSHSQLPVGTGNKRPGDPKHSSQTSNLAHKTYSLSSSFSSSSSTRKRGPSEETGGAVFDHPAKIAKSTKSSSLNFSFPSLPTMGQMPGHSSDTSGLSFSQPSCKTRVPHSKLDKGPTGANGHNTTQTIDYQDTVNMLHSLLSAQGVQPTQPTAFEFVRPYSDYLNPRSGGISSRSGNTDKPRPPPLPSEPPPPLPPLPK
# Outline: as §1
# [9] = target: T9, MAPK9 (JNK2) (Homo sapiens, UniProt P45984)
# T9 construct: purchased Invitrogen (Life Technologies) SelectScreen Z'-LYTE
# Outline: as §1
# [10] = target: T10, MAPK10 (JNK3) (Homo sapiens, UniProt P53779)
# T10 construct: purchased Invitrogen (Life Technologies) SelectScreen Z'-LYTE
# T10 sequence (P53779 whole entry): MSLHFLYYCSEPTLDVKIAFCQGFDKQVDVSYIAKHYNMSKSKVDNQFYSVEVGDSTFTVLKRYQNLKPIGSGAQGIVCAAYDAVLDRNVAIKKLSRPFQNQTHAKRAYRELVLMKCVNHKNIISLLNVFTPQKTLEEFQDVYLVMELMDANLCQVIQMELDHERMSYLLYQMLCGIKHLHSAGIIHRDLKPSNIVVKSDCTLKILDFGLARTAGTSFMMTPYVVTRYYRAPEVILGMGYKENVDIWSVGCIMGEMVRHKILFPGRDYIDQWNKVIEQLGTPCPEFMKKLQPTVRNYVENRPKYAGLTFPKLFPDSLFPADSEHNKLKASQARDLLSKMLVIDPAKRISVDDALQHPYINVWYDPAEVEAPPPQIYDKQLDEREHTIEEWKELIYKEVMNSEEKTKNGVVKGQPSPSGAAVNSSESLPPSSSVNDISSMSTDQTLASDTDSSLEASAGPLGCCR
# Outline: as §1
# [11] = target: T11, MAPK8 (JNK1) (Homo sapiens, UniProt P45983)
# T11 construct: purchased Invitrogen (Life Technologies) SelectScreen Z'-LYTE
# Outline: as §1
# [12] = target: T12, PAK3 (Homo sapiens, UniProt O75914)
# T12 construct: purchased Invitrogen (Life Technologies) SelectScreen Z'-LYTE
# Outline: as §1
# [13] = target: T13, PAK7 (KIAA 1264) (Homo sapiens, UniProt Q9P286)
# T13 construct: purchased Invitrogen (Life Technologies) SelectScreen Z'-LYTE
# Outline: as §1
# [14] = target: T14, CDK7/cyclin H/MNAT1 (Homo sapiens, UniProt P50613)
# T14 construct: purchased Invitrogen (Life Technologies) SelectScreen Z'-LYTE
# T14 sequence (P50613 whole entry): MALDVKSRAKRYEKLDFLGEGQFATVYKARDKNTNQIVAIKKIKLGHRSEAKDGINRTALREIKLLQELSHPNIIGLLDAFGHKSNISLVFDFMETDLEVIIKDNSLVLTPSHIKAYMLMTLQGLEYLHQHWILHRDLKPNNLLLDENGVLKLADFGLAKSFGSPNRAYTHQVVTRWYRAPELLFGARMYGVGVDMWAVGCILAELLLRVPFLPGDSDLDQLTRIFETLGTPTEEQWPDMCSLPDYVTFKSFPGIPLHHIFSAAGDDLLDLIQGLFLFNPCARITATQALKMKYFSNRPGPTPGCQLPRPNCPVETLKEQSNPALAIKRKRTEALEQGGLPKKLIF
# T14 sequence (P51946 whole entry partner): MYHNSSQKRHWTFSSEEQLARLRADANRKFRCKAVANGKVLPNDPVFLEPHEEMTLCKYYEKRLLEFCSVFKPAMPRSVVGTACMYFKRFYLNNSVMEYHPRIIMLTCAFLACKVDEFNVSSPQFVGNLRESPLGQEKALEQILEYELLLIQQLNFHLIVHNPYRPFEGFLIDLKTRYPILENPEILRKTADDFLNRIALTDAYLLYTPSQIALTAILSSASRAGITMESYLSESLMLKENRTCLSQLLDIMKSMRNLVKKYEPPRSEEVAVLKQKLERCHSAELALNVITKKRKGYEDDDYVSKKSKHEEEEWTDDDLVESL
# T14 sequence (P51948 whole entry partner): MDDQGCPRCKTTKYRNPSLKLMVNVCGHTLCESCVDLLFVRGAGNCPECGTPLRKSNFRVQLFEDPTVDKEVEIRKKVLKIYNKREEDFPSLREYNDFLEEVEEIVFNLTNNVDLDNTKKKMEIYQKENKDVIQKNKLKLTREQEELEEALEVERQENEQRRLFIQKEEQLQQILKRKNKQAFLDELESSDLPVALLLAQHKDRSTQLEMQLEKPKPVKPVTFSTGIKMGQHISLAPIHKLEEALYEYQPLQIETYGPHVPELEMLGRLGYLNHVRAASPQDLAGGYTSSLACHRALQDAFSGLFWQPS
# Outline: as §1
# [15] = target: T15, SYK (Homo sapiens, UniProt P43405)
# T15 construct: purchased Invitrogen (Life Technologies) SelectScreen Z'-LYTE
# Outline: as §1
# [16] = target: T16, EPHA2 (Homo sapiens, UniProt P29317)
# T16 construct: purchased Invitrogen (Life Technologies) SelectScreen Z'-LYTE
# Outline: as §1
# [17] = target: T17, MAPKAPK2 (Homo sapiens, UniProt P49137)
# T17 construct: purchased Invitrogen (Life Technologies) SelectScreen Z'-LYTE
# Outline: as §1
# [18] = target: T18, CDK1/cyclin B (Homo sapiens, UniProt P06493)
# T18 construct: purchased Invitrogen (Life Technologies) SelectScreen Z'-LYTE
# Outline: as §1
# [19] = target: T19, FGFR3 (Homo sapiens, UniProt P22607)
# T19 construct: purchased Invitrogen (Life Technologies) SelectScreen Z'-LYTE
# Outline: as §1
# [20] = target: T20, ADRBK2 (GRK3) (Homo sapiens, UniProt P35626)
# T20 construct: purchased Invitrogen (Life Technologies) SelectScreen Z'-LYTE
# T20 sequence (P35626 1-688): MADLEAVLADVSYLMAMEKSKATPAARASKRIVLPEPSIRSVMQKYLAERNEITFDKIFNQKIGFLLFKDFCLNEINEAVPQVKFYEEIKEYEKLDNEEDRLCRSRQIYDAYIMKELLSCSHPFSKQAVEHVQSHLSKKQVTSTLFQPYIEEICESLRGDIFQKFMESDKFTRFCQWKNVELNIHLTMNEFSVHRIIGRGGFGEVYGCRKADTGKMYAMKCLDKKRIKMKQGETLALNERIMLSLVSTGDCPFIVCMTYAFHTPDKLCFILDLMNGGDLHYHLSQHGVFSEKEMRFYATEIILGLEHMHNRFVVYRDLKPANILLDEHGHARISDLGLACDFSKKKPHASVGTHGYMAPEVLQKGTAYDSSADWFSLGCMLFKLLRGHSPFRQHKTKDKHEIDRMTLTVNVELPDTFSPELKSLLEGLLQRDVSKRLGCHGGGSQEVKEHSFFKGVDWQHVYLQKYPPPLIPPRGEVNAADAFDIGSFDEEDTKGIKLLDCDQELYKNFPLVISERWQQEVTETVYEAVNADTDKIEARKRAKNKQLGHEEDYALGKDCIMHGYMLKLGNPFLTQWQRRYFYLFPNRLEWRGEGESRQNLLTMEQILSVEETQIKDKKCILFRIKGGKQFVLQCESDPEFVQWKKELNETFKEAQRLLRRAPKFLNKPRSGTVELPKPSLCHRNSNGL
# Outline: as §1
# [21] = target: T21, ERBB2 (HER2) (Homo sapiens, UniProt P04626)
# T21 construct: purchased Invitrogen (Life Technologies) SelectScreen Z'-LYTE
# Outline: as §1
# [22] = target: T22, PRKCQ (PKC theta) (Homo sapiens, UniProt Q04759)
# T22 construct: purchased Invitrogen (Life Technologies) SelectScreen Z'-LYTE
# T22 sequence (Q04759 whole entry): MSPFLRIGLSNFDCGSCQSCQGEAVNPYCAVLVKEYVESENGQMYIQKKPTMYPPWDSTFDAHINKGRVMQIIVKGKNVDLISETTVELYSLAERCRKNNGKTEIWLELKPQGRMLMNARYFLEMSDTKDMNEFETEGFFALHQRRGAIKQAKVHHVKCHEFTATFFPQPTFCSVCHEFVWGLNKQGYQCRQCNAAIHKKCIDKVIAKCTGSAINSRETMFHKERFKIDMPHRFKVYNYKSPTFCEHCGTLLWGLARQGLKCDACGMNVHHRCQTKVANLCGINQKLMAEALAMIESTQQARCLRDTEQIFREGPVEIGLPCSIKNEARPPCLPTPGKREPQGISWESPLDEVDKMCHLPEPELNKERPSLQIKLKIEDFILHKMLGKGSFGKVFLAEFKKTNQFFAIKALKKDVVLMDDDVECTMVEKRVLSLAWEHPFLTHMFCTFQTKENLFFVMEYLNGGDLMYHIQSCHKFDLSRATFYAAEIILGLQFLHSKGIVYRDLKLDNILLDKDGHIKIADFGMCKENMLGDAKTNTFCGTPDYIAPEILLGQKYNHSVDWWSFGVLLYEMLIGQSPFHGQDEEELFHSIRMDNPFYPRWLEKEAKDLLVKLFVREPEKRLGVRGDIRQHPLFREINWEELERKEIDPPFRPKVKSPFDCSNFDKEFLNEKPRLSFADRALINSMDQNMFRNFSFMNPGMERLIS
# Outline: as §1
# [23] = target: T23, KDR (VEGFR2) (Homo sapiens, UniProt P35968)
# T23 construct: purchased Invitrogen (Life Technologies) SelectScreen Z'-LYTE
# Outline: as §1
# [24] = target: T24, G3K3A (G3K3 alpha) (Homo sapiens, UniProt P49840)
# T24 construct: purchased Invitrogen (Life Technologies) SelectScreen Z'-LYTE
# T24 sequence (P49840 whole entry): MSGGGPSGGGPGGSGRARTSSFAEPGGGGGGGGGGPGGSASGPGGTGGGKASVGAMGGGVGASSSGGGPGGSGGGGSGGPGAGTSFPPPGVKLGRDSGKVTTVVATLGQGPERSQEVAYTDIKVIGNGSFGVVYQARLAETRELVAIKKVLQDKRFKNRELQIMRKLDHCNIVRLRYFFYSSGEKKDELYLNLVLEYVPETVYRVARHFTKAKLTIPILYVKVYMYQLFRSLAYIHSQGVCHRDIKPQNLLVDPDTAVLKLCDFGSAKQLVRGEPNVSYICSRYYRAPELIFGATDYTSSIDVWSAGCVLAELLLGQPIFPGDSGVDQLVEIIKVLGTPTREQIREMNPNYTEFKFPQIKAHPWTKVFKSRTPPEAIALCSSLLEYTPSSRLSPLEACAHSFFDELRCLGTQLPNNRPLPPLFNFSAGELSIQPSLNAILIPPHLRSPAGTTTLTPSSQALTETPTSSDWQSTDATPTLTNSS
# Outline: as §1
# [25] = target: T25, PRKCB1 (PKC beta I) (Homo sapiens, UniProt P05771)
# T25 construct: purchased Invitrogen (Life Technologies) SelectScreen Z'-LYTE
# Outline: as §1
# [26] = target: T26, FGFR4 (Homo sapiens, UniProt P22455)
# T26 construct: purchased Invitrogen (Life Technologies) SelectScreen Z'-LYTE
# Outline: as §1
# [27] = target: T27, MARK3 (Homo sapiens, UniProt P27448)
# T27 construct: purchased Invitrogen (Life Technologies) SelectScreen Z'-LYTE
# Outline: as §1
# [28] = target: T28, EGFR (ErbB1) (Homo sapiens, UniProt P00533)
# T28 construct: purchased Invitrogen (Life Technologies) SelectScreen Z'-LYTE
# Outline: as §1
# [29] = target: T29, ROCK2 (Homo sapiens, UniProt O75116)
# T29 construct: purchased Invitrogen (Life Technologies) SelectScreen Z'-LYTE
# Outline: as §1
# [30] = target: T30, PDGFRA (PDGFR alpha) (Homo sapiens, UniProt P16234)
# T30 construct: purchased Invitrogen (Life Technologies) SelectScreen Z'-LYTE
# Outline: as §1
# [31] = target: T31, YES1 (Homo sapiens, UniProt P07947)
# T31 construct: purchased Invitrogen (Life Technologies) SelectScreen Z'-LYTE
# Outline: as §1
Structure (SMILES),% inhibition of activity [1] [%],% inhibition of activity [2] [%],% inhibition of activity [3] [%],% inhibition of activity [4] [%],% inhibition of activity [5] [%],% inhibition of activity [6] [%],% inhibition of activity [7] [%],% inhibition of activity [8] [%],% inhibition of activity [9] [%],% inhibition of activity [10] [%],% inhibition of activity [11] [%],% inhibition of activity [12] [%],% inhibition of activity [13] [%],% inhibition of activity [14] [%],% inhibition of activity [15] [%],% inhibition of activity [16] [%],% inhibition of activity [17] [%],% inhibition of activity [18] [%],% inhibition of activity [19] [%],% inhibition of activity [20] [%],other results
CCn1c(=O)c(-c2ccc(-c3noc(C)n3)cc2Cl)cc2cnc(Nc3ccc(C4CCN(C)CC4)cc3)nc21 [Frax716],7,37,54,74,97,60,8,3,20,12,30,90,17,2,21,68,7,3,35,2,% inhibition of activity [21]: 8%; % inhibition of activity [22]: 12%; % inhibition of activity [23]: 90%; % inhibition of activity [24]: −9%; % inhibition of activity [25]: 9%; % inhibition of activity [26]: 20%; % inhibition of activity [27]: 16%; % inhibition of activity [28]: 20%; % inhibition of activity [29]: 4%; % inhibition of activity [30]: 95%; % inhibition of activity [31]: 89%
CCn1c(=O)c(-c2ccc(-c3cncc(C)n3)cc2Cl)cc2cnc(NCCC3CCN(C)CC3)nc21 [Frax1036],0,14,6,11,16,15,4,−8,44,45,79,106,9,−3,4,18,0,6,0,−1,% inhibition of activity [21]: 2%; % inhibition of activity [22]: 24%; % inhibition of activity [23]: 16%; % inhibition of activity [24]: 7%; % inhibition of activity [25]: 18%; % inhibition of activity [26]: 9%; % inhibition of activity [27]: 24%; % inhibition of activity [28]: 2%; % inhibition of activity [29]: 7%; % inhibition of activity [30]: 2%; % inhibition of activity [31]: 18%
"Cc1nc(Nc2[nH]nc3c2CN(C(=O)N[C@H](CN(C)C)c2ccccc2)C3(C)C)c2sccc2n1 [PF3758309, reference compound]",14,5,14,26,74,72,18,13,0,5,9,100,99,96,32,18,1,12,31,4,% inhibition of activity [21]: 4%; % inhibition of activity [22]: 97%; % inhibition of activity [23]: 20%; % inhibition of activity [24]: 52%; % inhibition of activity [25]: 58%; % inhibition of activity [26]: 11%; % inhibition of activity [27]: 100%; % inhibition of activity [28]: 4%; % inhibition of activity [29]: 10%; % inhibition of activity [30]: 2%; % inhibition of activity [31]: 86%
